Tests used:
[1] = biological target: T1, isomerase (Mus musculus, UniProt Q91ZQ5); test: In vivo murine isomerase assay; design: species or system mice; details: for inhibition in vivo at 1 mg/kg: mouse, po, 4 h, read-out: % Inibition 1 mg/kg, 4 h
T1 construct: The recovery of 11-cis-retinal after bleaching can be used to estimate the activity of isomerase in vivo; from tissue; host or cells: eyes of living mice (CD-1; Balb/c also named)
T1 sequence (Q91ZQ5 1-533): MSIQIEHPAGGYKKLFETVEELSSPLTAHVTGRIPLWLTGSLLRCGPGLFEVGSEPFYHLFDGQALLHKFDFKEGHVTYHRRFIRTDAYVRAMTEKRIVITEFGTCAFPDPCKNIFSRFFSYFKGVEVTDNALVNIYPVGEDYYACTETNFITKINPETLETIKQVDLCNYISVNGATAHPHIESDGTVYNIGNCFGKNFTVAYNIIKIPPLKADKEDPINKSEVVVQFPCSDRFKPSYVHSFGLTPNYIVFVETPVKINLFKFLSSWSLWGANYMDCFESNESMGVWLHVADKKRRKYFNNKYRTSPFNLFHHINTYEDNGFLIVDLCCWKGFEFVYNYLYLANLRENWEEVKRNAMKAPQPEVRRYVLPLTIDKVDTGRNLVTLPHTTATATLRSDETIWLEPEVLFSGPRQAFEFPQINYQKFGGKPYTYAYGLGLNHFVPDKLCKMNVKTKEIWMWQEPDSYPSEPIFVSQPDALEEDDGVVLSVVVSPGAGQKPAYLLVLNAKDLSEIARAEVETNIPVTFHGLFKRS
Procedure: The capability of compounds described herein to inhibit isomerase was determined by an in vivo murine isomerase assay. Brief exposure of the eye to intense light (“photobleaching” of the visual pigment or simply “bleaching”) is known to photo-isomerize almost all 11-cis-retinal in the retina. The recovery of 11-cis-retinal after bleaching can be used to estimate the activity of isomerase in vivo. Delayed recovery, as represented by lower 11-cis-retinal oxime levels, indicates inhibition of isomerization reaction. Procedures were performed essentially as described by Golczak et al., Proc. Natl. Acad. Sci. […] Mice were gavaged with the compounds described in the present disclosure. After about 2-24 hours in the dark, the mice were exposed to photobleaching of about 5,000 lux of white light for 10 minutes. The mice were allowed to recover for about 2 hours in the dark. The animals were then sacrificed by carbon dioxide inhalation. Retinoids were extracted from the eye and the regeneration of 11-cis-retinal was assessed at various time intervals. […] After the mice were sacrificed, the eyes were immediately removed and placed in liquid nitrogen for storage. The eyes were placed in about 500 μL of bis-tris propane buffer (10 mM, pH˜7.3) and about 20 μl of 0.8M hydroxylamine (pH˜7.3). The eyes were cut up into small pieces with small iris scissors and then thoroughly homogenized at 30000 rpm with a mechanical homogenizer (Polytron PT 1300 D) in the tube until no visible tissue remains. About 500 μL of methanol and about 500 μL of heptane was added to each tube. The tubes were attached to a vortexer so that the contents are mixed thoroughly for about 15 minutes in room temperature. […] The samples were analyzed on an Agilent 1100 HPLC system with normal phase column: SILICA (Beckman Coutlier, dp 5 μm, […]). […] Loading volume for each sample was about 100 μl; detection wavelength is 360 nm. The area under the curve for 11-cis-retinal oxime was calculated by Agilent Chemstation software and recorded manually. Data processing was performed using Prizm software. Positive control mice (no compound administered) were sacrificed fully dark-adapted and the eye retinoids analyzed. Light (bleached) control mice (no compound administered) were sacrificed and retinoids isolated and analyzed immediately after light treatment. A time course study was also performed to determine the isomerase inhibitory activity of compounds of the present disclosure. Female or male mice (such as Balb/c mice) (at least 4/group) received 0 to about 5 mg of compounds (in water) per kg bodyweight orally, by gavage. The animals were then “photo-bleached” (about 5000 Lux white light for about 10 minutes) at about 2, 4, 8, 16 and 24 hours after dosing, and returned to darkness to allow recovery of the 11-cis-retinal content of the eyes. Mice were sacrificed about 2 hours after bleaching, eyes were enucleated, and retinoid content was analyzed by HPLC. A dose response in vivo isomerase inhibition study is performed with compounds of the present disclosure. Male or female mice (such as Balb/c mice)(at least about 8/group) are dosed orally with about 0.01 to 25 mg/kg of the compounds of HCl salts of the compounds in sterile water as solution, and photobleached about 4 hours after dosing. Recovery and retinoid analysis is performed as described above. Dark control mice are vehicle-only treated, sacrificed fully dark adapted without light treatment, and analyzed. […]

[2] = biological target: T2, recombinant human RPE65 and LRAT (Homo sapiens, UniProt Q16518); test: Human in vitro isomerase inhibition reaction; format: biochemical; details: human in vitro isomerase assay, FIG. 1 and FIG. 2
T2 construct: made in house; host or cells: HEK293 cell clone (homogenate) for RPE65 and LRAT; E. coli TOP10 for CRALBP
T2 sequence (Q16518 2-533 limits assumed): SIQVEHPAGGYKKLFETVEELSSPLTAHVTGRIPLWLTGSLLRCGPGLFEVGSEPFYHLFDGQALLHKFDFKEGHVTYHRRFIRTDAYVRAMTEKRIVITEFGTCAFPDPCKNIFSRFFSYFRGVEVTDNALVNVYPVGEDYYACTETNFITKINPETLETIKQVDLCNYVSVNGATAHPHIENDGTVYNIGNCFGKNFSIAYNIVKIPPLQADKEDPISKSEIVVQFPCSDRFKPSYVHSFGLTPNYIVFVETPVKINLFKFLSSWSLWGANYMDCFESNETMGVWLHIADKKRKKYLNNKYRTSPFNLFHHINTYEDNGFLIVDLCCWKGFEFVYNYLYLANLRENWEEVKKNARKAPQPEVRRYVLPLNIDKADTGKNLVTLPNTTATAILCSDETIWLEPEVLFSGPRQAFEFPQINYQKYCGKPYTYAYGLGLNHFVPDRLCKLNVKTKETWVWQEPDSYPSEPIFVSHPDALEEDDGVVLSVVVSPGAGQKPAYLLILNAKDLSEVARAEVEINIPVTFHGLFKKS
Procedure: A homogenate of HEK293 cell clone expressing recombinant human RPE65 and LRAT were the source of the visual enzymes, and exogenous all-trans-retinol (about 20 μM) was used as the substrate. […] The 200 μL Bis-Tris Phosphate buffer (10 mM, pH 7.2) based reaction mixture also contains 0.5% BSA, and 1 mM NaPPi. In this assay, the reaction was carried out at 37° C. in duplicates for one hour and was terminated by addition of 300 μL methanol. The amount of reaction product, 11-cis-retinol, was measured by HPLC analysis following Heptane extraction of the reaction mixture.

| Compound | inhibition in vivo at 1 mg/kg [1] | inhibition of 11-cis-retinol production [2] | % Inibition 1 mg/kg, 24 h ([1]; 1 mg/kg oral, 24 h after dosing, inhibition of 11-cis-retinal (oxime) recovery after photobleach) |
| --- | --- | --- | --- |
| NCCC(O)c1cccc(NS(=O)(=O)C2CCCCC2)c1 (centres unmarked) [Example 5, N-(3-(3-amino-1-hydroxypropyl)phenyl)cyclohexanesulfonamide] | -11.7 ± 4.36% | dose-dependent inhibition | – |
| NCCCc1cccc(NS(=O)(=O)C2CCCCC2)c1 [Example 6, N-(3-(3-aminopropyl)phenyl)cyclohexanesulfonamide] | -11.9 ± 18.2% | dose-dependent inhibition | 48.70 ± 2.71% |
